The term Ki denotes the equilibrium dissociation constant of an inhibitor or competing ligand from its target.

Our source for the Ki values is ChEMBL document CHEMBL4219212, “Synthesis of 3-(3-hydroxyphenyl)pyrrolidine dopamine D3 receptor ligands with extended functionality for probing the secondary binding pocket” (Bioorg Med Chem Lett, 2018).

In assay [1] the target is T1, 5-hydroxytryptamine receptor 1A (Homo sapiens, UniProt P08908).
T1 sequence (P08908 whole entry): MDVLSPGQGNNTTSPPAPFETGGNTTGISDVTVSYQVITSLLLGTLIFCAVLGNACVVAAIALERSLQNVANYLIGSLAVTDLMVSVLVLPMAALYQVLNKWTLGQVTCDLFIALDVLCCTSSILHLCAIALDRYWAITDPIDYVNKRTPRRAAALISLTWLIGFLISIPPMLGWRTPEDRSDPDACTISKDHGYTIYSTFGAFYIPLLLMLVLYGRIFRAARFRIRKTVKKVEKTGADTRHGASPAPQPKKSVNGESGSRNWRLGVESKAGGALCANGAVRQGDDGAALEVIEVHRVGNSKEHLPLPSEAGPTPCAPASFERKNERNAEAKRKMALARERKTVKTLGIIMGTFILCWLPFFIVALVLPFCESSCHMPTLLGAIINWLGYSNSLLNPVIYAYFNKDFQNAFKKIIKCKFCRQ
As to the kind of experiment: Displacement of [3H]-Way100635 from 5HT1A receptor (unknown origin) expressed in stable CHO cell membranes by radioligand binding assay. (Displacement assays read how much labelled ligand stays bound in the presence of the test substance.)

In assay [2] the target is D(1A) dopamine receptor (Homo sapiens, UniProt P21728). Description: Displacement of [3H]SCH23390 from human dopamine D1 receptor expressed in HEK293T cell membranes by radioligand binding assay.
D(1A) dopamine receptor, sequence (P21728 whole entry): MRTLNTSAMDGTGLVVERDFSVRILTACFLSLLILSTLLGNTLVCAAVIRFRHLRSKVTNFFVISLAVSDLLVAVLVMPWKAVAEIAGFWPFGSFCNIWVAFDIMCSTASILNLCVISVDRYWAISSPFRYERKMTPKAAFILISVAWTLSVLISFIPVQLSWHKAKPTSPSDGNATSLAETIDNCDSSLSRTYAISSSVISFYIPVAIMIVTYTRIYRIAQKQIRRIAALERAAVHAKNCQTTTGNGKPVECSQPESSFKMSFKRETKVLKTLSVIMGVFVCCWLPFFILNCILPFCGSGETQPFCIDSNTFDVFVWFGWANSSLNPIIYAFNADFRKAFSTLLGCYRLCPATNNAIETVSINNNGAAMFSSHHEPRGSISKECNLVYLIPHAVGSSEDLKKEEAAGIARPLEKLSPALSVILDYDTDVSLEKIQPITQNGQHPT
The target in assay [3] is D(2) dopamine receptor (Homo sapiens, UniProt P14416). Description: Binding affinity to human dopamine D2 receptor.
D(2) dopamine receptor, sequence (P14416 whole entry): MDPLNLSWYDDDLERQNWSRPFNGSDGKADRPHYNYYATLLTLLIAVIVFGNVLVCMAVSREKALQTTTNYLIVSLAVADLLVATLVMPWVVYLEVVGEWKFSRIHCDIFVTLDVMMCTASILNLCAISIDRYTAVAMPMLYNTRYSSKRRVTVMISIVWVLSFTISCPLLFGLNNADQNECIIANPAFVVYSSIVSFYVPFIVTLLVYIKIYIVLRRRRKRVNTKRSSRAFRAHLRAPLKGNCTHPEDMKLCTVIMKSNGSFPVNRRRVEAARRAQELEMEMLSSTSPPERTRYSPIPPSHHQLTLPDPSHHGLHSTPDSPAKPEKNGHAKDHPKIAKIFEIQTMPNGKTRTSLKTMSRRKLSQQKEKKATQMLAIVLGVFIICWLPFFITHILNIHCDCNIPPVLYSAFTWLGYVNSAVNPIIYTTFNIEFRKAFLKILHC
The target in assay [4] is D(3) dopamine receptor (Homo sapiens, UniProt P35462). As to the kind of experiment: Binding affinity to human dopamine D3 receptor.
D(3) dopamine receptor, sequence (P35462 whole entry): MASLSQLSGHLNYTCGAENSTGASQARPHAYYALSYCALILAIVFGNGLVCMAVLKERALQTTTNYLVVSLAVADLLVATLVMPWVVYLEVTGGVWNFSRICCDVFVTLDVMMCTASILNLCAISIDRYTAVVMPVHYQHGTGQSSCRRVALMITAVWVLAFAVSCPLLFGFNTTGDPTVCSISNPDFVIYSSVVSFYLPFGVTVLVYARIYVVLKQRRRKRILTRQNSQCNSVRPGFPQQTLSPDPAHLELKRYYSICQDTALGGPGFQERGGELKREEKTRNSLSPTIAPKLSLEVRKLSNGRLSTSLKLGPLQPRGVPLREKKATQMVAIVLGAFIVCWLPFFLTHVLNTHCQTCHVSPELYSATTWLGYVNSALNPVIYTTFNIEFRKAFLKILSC

Take `CCCCCCCN1CCC(c2cccc(O)c2)C1` (stereo not drawn): the Ki stood at 19 nM in assay [1] and 597 nM in assay [2].

As to `CCCCCN1CCC(c2cccc(O)c2)C1` (stereo not drawn), the Ki came out at 326 nM in assay [1] and 542 nM in assay [2].

As for `CCCCCCCCCN1CCC(c2cccc(O)c2)C1` (single isomer, unassigned; (-)), the values for the Ki in assay [1] and in assay [2] were 48 nM and 181 nM, respectively.

Turning to `CCCCCCCCCN1CCC(c2cccc(O)c2)C1` (single isomer, unassigned; (+)), the results for the Ki in assay [1] and in assay [2] were 115 nM and > 10000 nM, respectively.

Regarding `CCCN1CCC(c2cccc(O)c2)C1` (stereo not drawn), the Ki in assay [3] came out at 68 nM; in assay [4], 52 nM.

Take `CCCCCCCCCN1CCC(c2cccc(O)c2)C1` (racemic): the figures for the Ki in assay [1] and in assay [2] were 15 nM and 174 nM, respectively.

For the compound `CN(C)c1ccc(C(=O)NCCCCN2CCC(c3cccc(O)c3)C2)cc1` (racemic), in assay [2], the Ki worked out at 831 nM.

As to `CN(C)c1ccc(C(=O)NCCCCN2CCC(c3cccc(O)c3)C2)cc1` (single isomer, unassigned; (+)), the Ki in assay [2] was > 10000 nM.

`CN(C)c1ccc(C(=O)NCCCCN2CCC(c3cccc(O)c3)C2)cc1` (single isomer, unassigned; (-)) registered a Ki in assay [2] of 4590 nM.

Consider `CCCCCCN1CCC(c2cccc(O)c2)C1` (stereo not drawn), for which the results for the Ki in assay [1] and in assay [2] were 272 nM and 1280 nM, respectively.

`CCCCN1CCC(c2cccc(O)c2)C1` (stereo not drawn): the Ki in assay [1] is 1810 nM; in assay [2], 861 nM.

On to `CCCCCCCCCCN1CCC(c2cccc(O)c2)C1` (stereo not drawn), for which the Ki in assay [1] was 12 nM; in assay [2], 128 nM.

Consider `CCCCCCCCN1CCC(c2cccc(O)c2)C1` (stereo not drawn), for which the figures for the Ki in assay [1] and in assay [2] were 9.4 nM and 170 nM, respectively.
